Test [1] addresses Protein-arginine deiminase type-4 (Homo sapiens) (UniProt Q9UM07). Kind of test: Inhibition of PAD4 (unknown origin) at 52 degC.
Test [2] has the same target. The test is described as follows: Inhibition of PAD4 (unknown origin) at 37 degC.

Sequence of Protein-arginine deiminase type-4 (Homo sapiens) (Q9UM07 whole entry, looked up): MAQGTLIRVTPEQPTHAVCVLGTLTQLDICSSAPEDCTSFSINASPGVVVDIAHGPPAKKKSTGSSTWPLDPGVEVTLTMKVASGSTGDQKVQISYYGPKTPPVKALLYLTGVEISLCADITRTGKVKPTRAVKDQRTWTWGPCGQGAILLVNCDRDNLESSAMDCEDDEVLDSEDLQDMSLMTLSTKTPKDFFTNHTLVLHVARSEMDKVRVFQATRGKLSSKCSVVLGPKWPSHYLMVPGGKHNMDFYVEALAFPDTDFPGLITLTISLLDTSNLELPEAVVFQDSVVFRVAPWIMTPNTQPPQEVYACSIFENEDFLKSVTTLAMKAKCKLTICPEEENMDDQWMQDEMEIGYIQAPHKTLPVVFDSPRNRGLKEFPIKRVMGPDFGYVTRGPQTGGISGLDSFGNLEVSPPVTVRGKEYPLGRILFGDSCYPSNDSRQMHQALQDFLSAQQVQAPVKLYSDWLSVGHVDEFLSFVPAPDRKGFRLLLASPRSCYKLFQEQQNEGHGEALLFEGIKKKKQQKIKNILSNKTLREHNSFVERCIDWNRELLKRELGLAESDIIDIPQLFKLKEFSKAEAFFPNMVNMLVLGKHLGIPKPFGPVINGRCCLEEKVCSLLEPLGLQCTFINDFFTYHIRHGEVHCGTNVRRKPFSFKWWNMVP

For orientation: IC50 means the concentration that gives 50% inhibition. Higher therefore signals a need for much substance. In general, Ki refers to the dissociation constant of the complex between target and ligand, obtained from inhibition or displacement. Consider `CC1(C)NC(=O)N(CN2CCNCC2)C1=O`, for which, in test [1], the IC50 was 4270 µM and the Ki was 371 µM. In addition, in test [2], the half-maximal inhibitory concentration (IC50) was found to be 1380 µM and the inhibition constant Ki was 131 µM.
In test [1], `CC1CCc2c(sc3ncn(N)c(=N)c23)C1` (stereo unspecified) came in with a concentration for half-maximal inhibition (IC50) of 757 µM and an inhibition constant Ki of 66 µM. In test [2], this compound returned a half-inhibitory concentration (IC50) of 1760 µM and an inhibition constant (Ki) of 153 µM.
In test [1], `CC(=NN=C(N)N)C1=CC(C)(C)CCC1` returned a concentration for half-maximal inhibition (IC50) of 790 µM and a Ki of 69 µM. For the same compound, in test [2], the half-maximal inhibitory concentration (IC50) is 1460 µM and the Ki amounted to 127 µM.
In test [1], `C[C@H]1C(=O)Nc2ccc(-c3csc(N=C(N)N)n3)cc21` registered a concentration for half-maximal inhibition (IC50) of 2650 µM and a Ki of 231 µM. Besides, in test [2], the IC50 amounted to 1320 µM and the inhibition constant Ki came out at 115 µM.

The values are drawn from BindingDB's records for doi:10.1021/jm301755q (University Health Network, 2013).
